According to the kinase profiling compilation of Christmann-Franck et al. (2016):
Several values for one entry are separate records, joined by “and”; a condition that tells them apart may be missing. Equal entries are not always repeated.

Assays:
Experiment in all cases: KINOMEscan competition binding
Settings in all cases: compound 10.0 µM
[1] = target: STK3 (human) (UniProt Q13188)
[2] = target: MAPK14 (human) (UniProt Q16539)
[3] = target: MAP2K6 (human) (UniProt P52564)
[4] = tested on: KIT (human), P10721 [D816H]
[5] = target: TGFBR1 (human) (UniProt P36897)
[6] = target: PRKCH (human) (UniProt P24723)
[7] = target: MAPK13 (human) (UniProt O15264)
[8] = target: TIE1 (human) (UniProt P35590)
[9] = target: TNK2 (human) (UniProt Q07912)
[10] = target: PKN2 (human) (UniProt Q16513)
[11] = target: ULK1 (human) (UniProt O75385)
[12] = target: FER (human) (UniProt P16591)
[13] = target: DDR2 (human) (UniProt Q16832)
[14] = target: EPHA1 (human) (UniProt P21709)
[15] = target: EPHA8 (human) (UniProt P29322)
[16] = target: MAK (human) (UniProt P20794)
[17] = target: MERTK (human) (UniProt Q12866)
[18] = target: PIP5K1A (human) (UniProt Q99755)
[19] = target: CAMK2A (human) (UniProt Q9UQM7)
[20] = target: VRK2 (human) (UniProt Q86Y07)
[21] = target: MUSK (human) (UniProt O15146)
[22] = target: ERBB4 (human) (UniProt Q15303)
[23] = target: FRK (human) (UniProt P42685)
[24] = target: EIF2AK2 (human) (UniProt P19525)
[25] = target: NEK1 (human) (UniProt Q96PY6)
[26] = target: MAPK11 (human) (UniProt Q15759)
[27] = target: RPS6KB1 (human) (UniProt P23443)
[28] = target: STK16 (human) (UniProt O75716)
[29] = target: PRKG1 (human) (UniProt Q13976)
[30] = target: KIT (human) (UniProt P10721)
[31] = target: MYLK (human) (UniProt Q15746)
[32] = tested on: MET (human), P08581 [M1250T]
[33] = target: GAK (human) (UniProt O14976)
[34] = target: CAMK1D (human) (UniProt Q8IU85)
[35] = target: LATS2 (human) (UniProt Q9NRM7)
[36] = target: ITK (human) (UniProt Q08881)
[37] = target: NEK6 (human) (UniProt Q9HC98)
[38] = target: AKT1 (human) (UniProt P31749)
[39] = tested on: EGFR (human), P00533 [A750P; 747-749 del]
[40] = target: LATS1 (human) (UniProt O95835)

Sequence of KIT (human) (P10721 whole entry, looked up): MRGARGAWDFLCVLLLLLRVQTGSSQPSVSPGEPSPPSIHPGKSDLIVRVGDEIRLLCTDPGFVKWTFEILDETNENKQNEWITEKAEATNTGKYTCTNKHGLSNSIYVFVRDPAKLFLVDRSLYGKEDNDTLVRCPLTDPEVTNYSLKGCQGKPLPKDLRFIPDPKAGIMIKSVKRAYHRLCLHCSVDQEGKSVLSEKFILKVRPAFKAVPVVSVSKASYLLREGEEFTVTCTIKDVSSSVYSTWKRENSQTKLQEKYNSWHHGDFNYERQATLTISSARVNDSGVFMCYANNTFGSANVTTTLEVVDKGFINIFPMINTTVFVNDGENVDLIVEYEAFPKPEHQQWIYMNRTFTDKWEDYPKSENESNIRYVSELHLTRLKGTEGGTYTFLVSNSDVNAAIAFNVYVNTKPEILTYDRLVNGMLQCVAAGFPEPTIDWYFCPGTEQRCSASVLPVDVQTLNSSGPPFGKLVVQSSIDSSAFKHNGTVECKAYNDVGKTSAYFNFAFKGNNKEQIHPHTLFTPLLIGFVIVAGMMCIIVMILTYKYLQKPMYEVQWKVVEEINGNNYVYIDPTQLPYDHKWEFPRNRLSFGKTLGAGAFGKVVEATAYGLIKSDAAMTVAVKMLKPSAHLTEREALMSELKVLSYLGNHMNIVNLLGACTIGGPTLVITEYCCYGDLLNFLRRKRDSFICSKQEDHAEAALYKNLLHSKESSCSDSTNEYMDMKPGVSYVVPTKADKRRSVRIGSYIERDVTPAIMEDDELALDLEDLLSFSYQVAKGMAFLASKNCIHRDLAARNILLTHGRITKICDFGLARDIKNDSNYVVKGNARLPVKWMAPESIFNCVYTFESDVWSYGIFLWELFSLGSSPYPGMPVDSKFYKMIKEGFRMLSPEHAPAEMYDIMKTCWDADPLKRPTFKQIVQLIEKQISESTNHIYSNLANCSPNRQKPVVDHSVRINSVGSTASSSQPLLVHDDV
Sequence of ITK (human) (Q08881 whole entry, looked up): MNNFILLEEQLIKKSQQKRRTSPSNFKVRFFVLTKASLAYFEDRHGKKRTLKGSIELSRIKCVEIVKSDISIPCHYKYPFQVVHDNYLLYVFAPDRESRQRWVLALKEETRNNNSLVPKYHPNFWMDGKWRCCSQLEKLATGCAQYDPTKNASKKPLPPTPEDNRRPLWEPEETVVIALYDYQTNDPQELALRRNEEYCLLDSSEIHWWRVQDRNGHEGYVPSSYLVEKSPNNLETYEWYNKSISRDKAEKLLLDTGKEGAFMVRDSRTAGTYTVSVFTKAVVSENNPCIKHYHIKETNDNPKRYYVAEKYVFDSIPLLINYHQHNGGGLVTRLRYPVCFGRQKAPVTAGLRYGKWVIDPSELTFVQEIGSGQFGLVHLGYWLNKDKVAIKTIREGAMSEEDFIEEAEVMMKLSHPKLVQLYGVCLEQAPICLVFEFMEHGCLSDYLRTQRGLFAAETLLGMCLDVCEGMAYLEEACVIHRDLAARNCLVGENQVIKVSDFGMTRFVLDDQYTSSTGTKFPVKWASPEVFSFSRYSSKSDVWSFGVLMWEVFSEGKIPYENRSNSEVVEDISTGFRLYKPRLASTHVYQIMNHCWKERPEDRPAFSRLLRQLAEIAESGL
Sequence of KIT (human), P10721 [D816H] (P10721 whole entry D816H, looked up): as the sequence (P10721 whole entry, looked up) above, with D816H counted along it
Sequence of CAMK1D (human) (Q8IU85 whole entry, looked up): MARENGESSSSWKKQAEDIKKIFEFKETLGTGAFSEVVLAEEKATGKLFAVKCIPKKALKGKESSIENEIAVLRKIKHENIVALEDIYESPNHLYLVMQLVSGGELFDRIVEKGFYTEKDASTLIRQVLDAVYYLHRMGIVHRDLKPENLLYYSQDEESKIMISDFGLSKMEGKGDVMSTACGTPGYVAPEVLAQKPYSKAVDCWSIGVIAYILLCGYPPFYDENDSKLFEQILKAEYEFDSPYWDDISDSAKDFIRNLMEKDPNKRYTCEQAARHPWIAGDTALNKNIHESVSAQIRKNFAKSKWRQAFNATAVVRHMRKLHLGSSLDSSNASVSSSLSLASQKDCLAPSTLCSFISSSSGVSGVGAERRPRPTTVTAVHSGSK
Sequence of LATS2 (human) (Q9NRM7 whole entry, looked up): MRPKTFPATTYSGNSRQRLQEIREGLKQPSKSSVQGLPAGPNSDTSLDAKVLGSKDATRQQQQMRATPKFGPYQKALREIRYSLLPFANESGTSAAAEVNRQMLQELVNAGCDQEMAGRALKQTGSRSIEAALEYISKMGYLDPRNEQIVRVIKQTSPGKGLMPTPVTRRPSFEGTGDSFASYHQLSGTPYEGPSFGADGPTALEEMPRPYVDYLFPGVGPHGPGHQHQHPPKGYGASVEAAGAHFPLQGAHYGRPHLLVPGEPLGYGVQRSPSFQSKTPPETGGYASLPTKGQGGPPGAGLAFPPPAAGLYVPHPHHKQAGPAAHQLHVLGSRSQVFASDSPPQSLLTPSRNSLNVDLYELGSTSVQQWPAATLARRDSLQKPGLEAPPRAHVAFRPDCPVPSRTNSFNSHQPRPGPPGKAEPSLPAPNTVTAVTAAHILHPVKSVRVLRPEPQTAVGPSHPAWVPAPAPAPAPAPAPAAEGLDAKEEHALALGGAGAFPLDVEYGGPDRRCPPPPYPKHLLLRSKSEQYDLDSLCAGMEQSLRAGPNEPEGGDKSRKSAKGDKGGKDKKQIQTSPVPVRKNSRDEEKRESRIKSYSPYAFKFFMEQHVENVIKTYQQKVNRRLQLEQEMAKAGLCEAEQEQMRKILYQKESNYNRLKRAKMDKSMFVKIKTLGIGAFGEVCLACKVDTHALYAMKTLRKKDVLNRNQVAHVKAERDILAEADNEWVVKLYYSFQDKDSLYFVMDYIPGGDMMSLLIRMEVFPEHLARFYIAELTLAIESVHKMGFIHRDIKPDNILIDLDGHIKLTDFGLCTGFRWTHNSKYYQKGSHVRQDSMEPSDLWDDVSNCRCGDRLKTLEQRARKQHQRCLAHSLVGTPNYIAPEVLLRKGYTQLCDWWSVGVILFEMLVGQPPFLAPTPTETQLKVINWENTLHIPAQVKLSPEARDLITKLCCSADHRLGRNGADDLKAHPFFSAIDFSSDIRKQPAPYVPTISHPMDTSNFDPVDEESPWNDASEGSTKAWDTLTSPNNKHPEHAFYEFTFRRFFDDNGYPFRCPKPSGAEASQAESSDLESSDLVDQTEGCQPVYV
Sequence of TIE1 (human) (P35590 whole entry, looked up): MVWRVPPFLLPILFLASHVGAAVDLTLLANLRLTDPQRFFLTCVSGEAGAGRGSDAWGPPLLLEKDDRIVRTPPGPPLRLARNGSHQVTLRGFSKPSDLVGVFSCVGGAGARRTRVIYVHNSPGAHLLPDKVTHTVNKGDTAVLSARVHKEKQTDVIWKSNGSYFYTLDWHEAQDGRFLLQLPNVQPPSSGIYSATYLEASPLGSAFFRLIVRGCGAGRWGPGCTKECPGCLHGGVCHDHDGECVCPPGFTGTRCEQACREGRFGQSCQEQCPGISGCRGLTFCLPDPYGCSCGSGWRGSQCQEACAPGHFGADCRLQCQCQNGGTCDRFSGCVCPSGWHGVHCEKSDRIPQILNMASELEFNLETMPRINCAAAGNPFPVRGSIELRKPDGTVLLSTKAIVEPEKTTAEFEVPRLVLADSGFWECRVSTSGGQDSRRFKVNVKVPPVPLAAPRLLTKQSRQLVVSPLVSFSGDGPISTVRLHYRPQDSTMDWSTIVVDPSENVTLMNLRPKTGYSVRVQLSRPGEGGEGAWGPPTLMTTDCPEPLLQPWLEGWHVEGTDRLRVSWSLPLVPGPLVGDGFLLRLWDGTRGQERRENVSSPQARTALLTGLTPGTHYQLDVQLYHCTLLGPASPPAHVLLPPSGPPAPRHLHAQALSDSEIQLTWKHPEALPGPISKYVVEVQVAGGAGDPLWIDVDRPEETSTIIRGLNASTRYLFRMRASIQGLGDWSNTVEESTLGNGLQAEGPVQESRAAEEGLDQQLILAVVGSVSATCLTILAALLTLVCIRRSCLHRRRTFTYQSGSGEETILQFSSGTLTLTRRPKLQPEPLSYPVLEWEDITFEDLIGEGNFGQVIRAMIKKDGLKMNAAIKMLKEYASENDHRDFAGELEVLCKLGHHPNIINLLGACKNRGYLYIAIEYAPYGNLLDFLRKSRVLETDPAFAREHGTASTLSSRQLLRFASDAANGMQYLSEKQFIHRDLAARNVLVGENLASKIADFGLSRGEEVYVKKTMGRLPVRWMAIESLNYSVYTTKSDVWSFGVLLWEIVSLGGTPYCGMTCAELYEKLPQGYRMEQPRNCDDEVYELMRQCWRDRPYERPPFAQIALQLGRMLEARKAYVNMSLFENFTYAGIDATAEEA
Sequence of MAPK14 (human) (Q16539 whole entry, looked up): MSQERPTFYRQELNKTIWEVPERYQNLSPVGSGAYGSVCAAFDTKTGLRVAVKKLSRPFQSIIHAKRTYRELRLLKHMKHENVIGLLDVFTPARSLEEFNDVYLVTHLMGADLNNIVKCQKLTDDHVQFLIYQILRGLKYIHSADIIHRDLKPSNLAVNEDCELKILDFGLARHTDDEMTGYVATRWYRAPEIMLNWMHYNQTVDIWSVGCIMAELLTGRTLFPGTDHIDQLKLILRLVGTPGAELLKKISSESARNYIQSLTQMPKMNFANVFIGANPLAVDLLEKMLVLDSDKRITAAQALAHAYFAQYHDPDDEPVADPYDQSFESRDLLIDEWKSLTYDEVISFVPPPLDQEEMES
Sequence of MAP2K6 (human) (P52564 whole entry, looked up): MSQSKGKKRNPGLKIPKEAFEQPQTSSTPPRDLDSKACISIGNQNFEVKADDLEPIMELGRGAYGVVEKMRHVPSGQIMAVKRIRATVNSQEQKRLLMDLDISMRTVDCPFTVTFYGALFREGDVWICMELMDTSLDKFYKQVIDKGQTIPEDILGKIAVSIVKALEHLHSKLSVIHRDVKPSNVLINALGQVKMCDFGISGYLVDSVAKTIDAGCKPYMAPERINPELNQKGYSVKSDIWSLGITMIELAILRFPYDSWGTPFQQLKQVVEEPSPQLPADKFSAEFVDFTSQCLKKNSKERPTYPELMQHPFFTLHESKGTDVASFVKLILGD

SMILES | kinase still bound, per cent of control [1] [%] | kinase still bound, per cent of control [2] [%] | kinase still bound, per cent of control [3] [%] | kinase still bound, per cent of control [4] [%] | kinase still bound, per cent of control [5] [%] | kinase still bound, per cent of control [6] [%] | kinase still bound, per cent of control [7] [%] | kinase still bound, per cent of control [8] [%] | kinase still bound, per cent of control [9] [%] | kinase still bound, per cent of control [10] [%] | kinase still bound, per cent of control [11] [%] | kinase still bound, per cent of control [12] [%] | kinase still bound, per cent of control [13] [%] | kinase still bound, per cent of control [14] [%] | kinase still bound, per cent of control [15] [%] | kinase still bound, per cent of control [16] [%] | kinase still bound, per cent of control [17] [%] | kinase still bound, per cent of control [18] [%] | kinase still bound, per cent of control [19] [%] | kinase still bound, per cent of control [20] [%] | further results
O=c1[nH]c2ccccc2n1C1CCN(Cc2ccc(-c3nc4cc5[nH]cnc5cc4nc3-c3ccccc3)cc2)CC1 | 100 | 88 | 100 | 100 | 100 | 69 | 100 | 100 | 100 | 92 | 78 | 83 | 76 | 100 | 95 | 100 | 95 | 88 | 98 | 76 | kinase still bound, per cent of control [21]: 100%; kinase still bound, per cent of control [22]: 66%; kinase still bound, per cent of control [23]: 100%; kinase still bound, per cent of control [24]: 100%; kinase still bound, per cent of control [25]: 100%; kinase still bound, per cent of control [26]: 95%; kinase still bound, per cent of control [27]: 84%; kinase still bound, per cent of control [28]: 92%; kinase still bound, per cent of control [29]: 88%; kinase still bound, per cent of control [30]: 95% and 89%; kinase still bound, per cent of control [31]: 57%; kinase still bound, per cent of control [32]: 28%; kinase still bound, per cent of control [33]: 88%; kinase still bound, per cent of control [34]: 76%; kinase still bound, per cent of control [35]: 82%; kinase still bound, per cent of control [36]: 97%; kinase still bound, per cent of control [37]: 100%; kinase still bound, per cent of control [38]: 77%; kinase still bound, per cent of control [39]: 77%; kinase still bound, per cent of control [40]: 93%
CNC(=O)Nc1ccc(-c2nc(N3CC4CCC(C3)O4)c3cnn(C4CCC5(CC4)OCCO5)c3n2)cc1 | 97 | 100 | 95 | 86 | 100 | 91 | 16 | 98 | 84 | 83 | 100 | 100 | 100 | 81 | 81 | 100 | 87 | 84 | 100 | 100 | kinase still bound, per cent of control [21]: 92%; kinase still bound, per cent of control [22]: 100%; kinase still bound, per cent of control [23]: 68%; kinase still bound, per cent of control [24]: 100%; kinase still bound, per cent of control [25]: 100%; kinase still bound, per cent of control [26]: 100%; kinase still bound, per cent of control [27]: 100%; kinase still bound, per cent of control [28]: 98%; kinase still bound, per cent of control [29]: 100%; kinase still bound, per cent of control [30]: 91% and 93%; kinase still bound, per cent of control [31]: 100%; kinase still bound, per cent of control [32]: 87%; kinase still bound, per cent of control [33]: 75%; kinase still bound, per cent of control [34]: 95%; kinase still bound, per cent of control [35]: 76%; kinase still bound, per cent of control [36]: 88%; kinase still bound, per cent of control [37]: 90%; kinase still bound, per cent of control [38]: 81%; kinase still bound, per cent of control [39]: 52%; kinase still bound, per cent of control [40]: 95%
